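Exposure lasted 48 hours, with cells grown in 96-well plates and compounds tested at five concentrations. At the GI50, growth is halved.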 Activity calls are given as the source filed them. Rule as the data show it: active = GI50 up to about 1.1 µM and inactive = higher.
How the values were obtained:
Assay in all cases: DTP human tumour cell line panel, 48 h
786-0 = test system: 786-0
A498 = test system: A498
A549 = test system: A549
ACHN = test system: ACHN
CAKI-1 = test system: CAKI-1
CCRF-CEM = test system: CCRF-CEM
COLO 205 = test system: COLO 205
DU-145 = test system: DU-145
EKVX = test system: EKVX
HCC 2998 = test system: HCC 2998
HCT-116 = test system: HCT-116
HCT-15 = test system: HCT-15
HL-60 = test system: HL-60
HOP-92 = test system: HOP-92
HT-29 = test system: HT-29
Hs-578T = test system: Hs-578T
IGROV-1 = test system: IGROV-1
K562 = test system: K562
KM12 = test system: KM12
LOX IMVI = test system: LOX IMVI
M14 = test system: M14
MCF7 = test system: MCF7
MDA-MB-231 = test system: MDA-MB-231
MDA-MB-435 = test system: MDA-MB-435
MOLT-4 = test system: MOLT-4
Malme-3M = test system: Malme-3M
NCI-H226 = test system: NCI-H226
NCI-H23 = test system: NCI-H23
NCI-H460 = test system: NCI-H460
NCI/ADR-RES = test system: NCI/ADR-RES
OVCAR-3 = test system: OVCAR-3
OVCAR-4 = test system: OVCAR-4
OVCAR-5 = test system: OVCAR-5
OVCAR-8 = test system: OVCAR-8
PC-3 = test system: PC-3
RPMI-8226 = test system: RPMI-8226
RXF 393 = test system: RXF 393
SF-268 = test system: SF-268
SF-295 = test system: SF-295
SF-539 = test system: SF-539
SK-MEL-28 = test system: SK-MEL-28
SK-MEL-2 = test system: SK-MEL-2
SK-MEL-5 = test system: SK-MEL-5
SK-OV-3 = test system: SK-OV-3
SN12C = test system: SN12C
SNB-19 = test system: SNB-19
SR = test system: SR
SW-620 = test system: SW-620
T47D = test system: T47D
TK-10 = test system: TK-10
U-251 = test system: U-251
UACC-257 = test system: UACC-257
UACC-62 = test system: UACC-62
HOP-62 = test system: HOP-62
NCI-H522 = test system: NCI-H522
SNB-75 = test system: SNB-75

How did the GI50 (786-0) turn out when Oc1nnc(-c2ccc(F)cc2)cc1-c1ccccc1 was run?
Its GI50 is 45.7 µM (inactive).

What about the GI50 (A498) of the same compound?
The GI50 was 64.4 µM (inactive).

What about the GI50 (A549) of the same compound?
The GI50 was > 100 µM (inactive).

What about the GI50 (ACHN) of the same compound?
Its GI50 is 57.9 µM (inactive).

What about the GI50 (CAKI-1) of the same compound?
The GI50 was 69.5 µM (inactive).

What about the GI50 (CCRF-CEM) of the same compound?
The GI50 was > 100 µM (inactive).

What about the GI50 (COLO 205) of the same compound?
Its GI50 is > 100 µM (inactive).

What about the GI50 (DU-145) of the same compound?
The GI50 was 57.5 µM (inactive).

And the GI50 (EKVX)?
Its GI50 is 42.9 µM (inactive).

And the GI50 (HCC 2998)?
Its GI50 is 78.5 µM (inactive).

What about the GI50 (HCT-116) of the same compound?
The GI50 was > 100 µM (inactive).

What about the GI50 (HCT-15) of the same compound?
Its GI50 is greater than 100 µM.

What about the GI50 (HL-60) of the same compound?
Its GI50 is > 100 µM (inactive).

What about the GI50 (HOP-92) of the same compound?
Its GI50 is > 100 µM (inactive).

And the GI50 (HT-29)?
The GI50 was > 100 µM (inactive).

What about the GI50 (Hs-578T) of the same compound?
The GI50 was 48.3 µM (inactive).

And the GI50 (IGROV-1)?
Its GI50 is 72.8 µM (inactive).

And the GI50 (K562)?
The GI50 was > 100 µM (inactive).

And the GI50 (KM12)?
Its GI50 is > 100 µM (inactive).

What about the GI50 (LOX IMVI) of the same compound?
Its GI50 is > 100 µM (inactive).

And the GI50 (M14)?
The GI50 was > 100 µM (inactive).

What about the GI50 (MCF7) of the same compound?
The GI50 was 71.4 µM (inactive).

What about the GI50 (MDA-MB-231) of the same compound?
Its GI50 is > 100 µM (inactive).

And the GI50 (MDA-MB-435)?
The GI50 was > 100 µM (inactive).

And the GI50 (MOLT-4)?
The GI50 was > 100 µM (inactive).

What about the GI50 (Malme-3M) of the same compound?
Its GI50 is 97.5 µM (inactive).

And the GI50 (NCI-H226)?
Its GI50 is > 100 µM (inactive).

What about the GI50 (NCI-H23) of the same compound?
The GI50 was > 100 µM (inactive).

And the GI50 (NCI-H460)?
The GI50 was 89.7 µM (inactive).

And the GI50 (NCI/ADR-RES)?
Its GI50 is > 100 µM (inactive).

What about the GI50 (OVCAR-3) of the same compound?
The GI50 was 23.4 µM (inactive).

What about the GI50 (OVCAR-4) of the same compound?
Its GI50 is 38 µM (inactive).

What about the GI50 (OVCAR-5) of the same compound?
Its GI50 is > 100 µM (inactive).

What about the GI50 (OVCAR-8) of the same compound?
The GI50 was 50.4 µM (inactive).

What about the GI50 (PC-3) of the same compound?
The GI50 was 91.4 µM (inactive).

And the GI50 (RPMI-8226)?
Its GI50 is 75 µM (inactive).

And the GI50 (RXF 393)?
The GI50 was 46.1 µM (inactive).

And the GI50 (SF-268)?
Its GI50 is 46.1 µM (inactive).

And the GI50 (SF-295)?
The GI50 was 40.4 µM (inactive).

And the GI50 (SF-539)?
Its GI50 is 35.9 µM (inactive).

What about the GI50 (SK-MEL-28) of the same compound?
The GI50 was 83.9 µM (inactive).

And the GI50 (SK-MEL-2)?
Its GI50 is 80.7 µM (inactive).

What about the GI50 (SK-MEL-5) of the same compound?
The GI50 was > 100 µM (inactive).

What about the GI50 (SK-OV-3) of the same compound?
The GI50 was 42.6 µM (inactive).

And the GI50 (SN12C)?
The GI50 was > 100 µM (inactive).

And the GI50 (SNB-19)?
The GI50 was 44.8 µM (inactive).

What about the GI50 (SR) of the same compound?
Its GI50 is > 100 µM (inactive).

And the GI50 (SW-620)?
Its GI50 is > 100 µM (inactive).

What about the GI50 (T47D) of the same compound?
Its GI50 is 44.2 µM (inactive).

What about the GI50 (TK-10) of the same compound?
The GI50 was 71.4 µM (inactive).

What about the GI50 (U-251) of the same compound?
Its GI50 is 35.8 µM (inactive).

What about the GI50 (UACC-257) of the same compound?
The GI50 was > 100 µM (inactive).

What about the GI50 (UACC-62) of the same compound?
Its GI50 is 76.2 µM (inactive).

Which results are given for O=c1c2ccccc2nc2n1CCc1c-2[nH]c2ccc(Br)cc12?
GI50 (786-0): 31.8 µM (inactive); GI50 (A498): > 100 µM (inactive); GI50 (A549): 43.8 µM (inactive); GI50 (CCRF-CEM): > 100 µM (inactive); GI50 (DU-145): > 100 µM (inactive); GI50 (EKVX): > 100 µM (inactive); GI50 (HCT-116): 48.9 µM (inactive); GI50 (HOP-62): 16.3 µM (inactive); GI50 (HOP-92): 91.2 µM (inactive); GI50 (HT-29): 45.5 µM (inactive); GI50 (Hs-578T): > 100 µM (inactive); GI50 (IGROV-1): > 100 µM (inactive); GI50 (K562): > 100 µM (inactive); GI50 (LOX IMVI): > 100 µM (inactive); GI50 (M14): > 100 µM (inactive); GI50 (MOLT-4): > 100 µM (inactive); GI50 (Malme-3M): > 100 µM (inactive); GI50 (NCI-H226): > 100 µM (inactive); GI50 (NCI-H23): > 100 µM (inactive); GI50 (NCI-H460): > 100 µM (inactive); GI50 (NCI/ADR-RES): > 100 µM (inactive); GI50 (OVCAR-3): > 100 µM (inactive); GI50 (OVCAR-4): 6.43 µM (inactive); GI50 (OVCAR-5): > 100 µM (inactive); GI50 (OVCAR-8): 11.1 µM (inactive); GI50 (RPMI-8226): > 100 µM (inactive); GI50 (SF-295): 8.61 µM (inactive); GI50 (SK-MEL-28): > 100 µM (inactive); GI50 (SK-MEL-5): 46 µM (inactive); GI50 (SNB-19): > 100 µM (inactive); GI50 (SR): > 100 µM (inactive); GI50 (SW-620): 59 µM (inactive); GI50 (UACC-257): > 100 µM (inactive)

Which GI50 (786-0) does the source give for Cc1ncc([N+](=O)[O-])n1CCNCCCn1ccnc1[N+](=O)[O-] here?
The GI50 was > 100 µM (inactive).

And the GI50 (A549)?
The GI50 was > 100 µM (inactive).

And the GI50 (CCRF-CEM)?
Its GI50 is > 100 µM (inactive).

And the GI50 (EKVX)?
The GI50 was > 10 µM (inactive).

And the GI50 (HCC 2998)?
The GI50 was > 100 µM (inactive).

And the GI50 (HCT-116)?
Its GI50 is > 100 µM (inactive).

And the GI50 (HCT-15)?
Its GI50 is greater than 100 µM.

What about the GI50 (HL-60) of the same compound?
Its GI50 is > 100 µM (inactive).

What about the GI50 (HOP-62) of the same compound?
The GI50 was > 100 µM (inactive).

And the GI50 (HT-29)?
The GI50 was > 100 µM (inactive).

What about the GI50 (Hs-578T) of the same compound?
The GI50 was > 100 µM (inactive).

What about the GI50 (K562) of the same compound?
Its GI50 is > 100 µM (inactive).

What about the GI50 (KM12) of the same compound?
Its GI50 is > 100 µM (inactive).

And the GI50 (MCF7)?
Its GI50 is > 100 µM (inactive).

And the GI50 (MOLT-4)?
Its GI50 is > 100 µM (inactive).

And the GI50 (Malme-3M)?
Its GI50 is > 100 µM (inactive).

And the GI50 (NCI-H226)?
Its GI50 is > 100 µM (inactive).

And the GI50 (NCI-H23)?
The GI50 was > 100 µM (inactive).

What about the GI50 (NCI-H460) of the same compound?
The GI50 was > 100 µM (inactive).

What about the GI50 (NCI-H522) of the same compound?
The GI50 was > 100 µM (inactive).

What about the GI50 (OVCAR-3) of the same compound?
Its GI50 is > 100 µM (inactive).

And the GI50 (OVCAR-5)?
Its GI50 is 75.3 µM (inactive).

What about the GI50 (OVCAR-8) of the same compound?
The GI50 was > 100 µM (inactive).

What about the GI50 (PC-3) of the same compound?
The GI50 was > 100 µM (inactive).

And the GI50 (RPMI-8226)?
Its GI50 is > 100 µM (inactive).

And the GI50 (SF-268)?
The GI50 was > 100 µM (inactive).

And the GI50 (SF-295)?
The GI50 was > 100 µM (inactive).

What about the GI50 (SF-539) of the same compound?
Its GI50 is > 100 µM (inactive).

What about the GI50 (SK-MEL-28) of the same compound?
The GI50 was > 100 µM (inactive).

What about the GI50 (SK-MEL-2) of the same compound?
Its GI50 is > 100 µM (inactive).

What about the GI50 (SK-MEL-5) of the same compound?
Its GI50 is > 100 µM (inactive).

And the GI50 (SN12C)?
The GI50 was > 100 µM (inactive).

And the GI50 (SNB-75)?
Its GI50 is > 100 µM (inactive).

What about the GI50 (SR) of the same compound?
The GI50 was > 100 µM (inactive).

And the GI50 (SW-620)?
The GI50 was > 100 µM (inactive).

What about the GI50 (TK-10) of the same compound?
Its GI50 is 70.3 µM (inactive).

What about the GI50 (U-251) of the same compound?
Its GI50 is > 100 µM (inactive).

And the GI50 (UACC-257)?
The GI50 was > 100 µM (inactive).
